The text below walks through data of patent US12358999B2, “Protein recognizing drug moiety of antibody-drug conjugate” (DAIICHI SANKYO COMPANY, LIMITED, priority 2018, dated 2025).

In assay [1] the test system is mouse antibody 1A3. Put plainly: Specificity of mouse antibody 1A3: immunostaining after mixing with compound (Example 9 ii). The assay is classed as binding. Conditions: CDH6-ADC (I) treated NOG mouse tumor; blending ratio 1A3: compound (2): SN-38 0.1:0.04:0.03. The protocol: To a highly immunodeficient mouse (NOG mouse), a human tumor taken from a patient with clear cell renal cell carcinoma was subcutaneously transplanted. After CDH6-ADC (I) was administered, the tumor tissue was taken to prepare paraffin-embedded specimens. Then, stainability of mouse antibody 1A3 was examined. The tumor tissue was taken from an NOG mouse to which CDH6-ADC (I) was not administered and used as a negative control. Deparaffinization and antigen activation were carried out using Autostainer Link pretreatment system (PT Link, manufactured by DAKO) and an antigen retrieval solution (Target Retrieval Solution Low pH, manufactured by DAKO) at 97° C. for 40 minutes. The following staining operation was carried out using an automatic staining device (Dako Autostainer Link 48: manufactured by DAKO) at room temperature. After washing once with EnVision FLEX WASH BUFFER (manufactured by DAKO), Peroxidase Block 3% H2O2 (manufactured by DAKO) was added; incubation was carried out for 5 minutes; and washing was carried out once with EnVision FLEX WASH BUFFER. Protein Block serum free (manufactured by DAKO) was added; incubation was carried out for 30 minutes; and liquid was removed by air blow. Mouse antibody 1A3 was diluted with REAL Antibody Diluent (manufactured by DAKO) to fall in the range of 0.03 μg/mL to 0.3 μg/mL and reaction was made for 60 minutes. […]

Assay [2] deals with mouse antibody 1A3. Put plainly: Specificity of mouse antibody 1A3: immunostaining after mixing with compound (Example 5 ii). The note with it: Example 5, written in present tense; blending ratio 0.1:0.04:0.03. In kind it is binding. On the procedure:
To a highly immunodeficient mouse (NOG mouse), a human-derived tumor is subcutaneously transplanted. After the antibody-drug conjugate according to the present invention is administered, the tumor tissue is taken to prepare paraffin-embedded specimens. Then, stainability of a mouse antibody 1A3 is examined. The tumor tissue is taken from a NOG mouse to which the antibody-drug conjugate according to the present invention is not administered and used as a negative control. Deparaffinization and antigen activation are carried out using Autostainer Link pretreatment system (PT Link, manufactured by DAKO) and an antigen retrieval solution (Target Retrieval Solution Low pH, manufactured by DAKO). The following staining operation is carried out using an automatic staining device (Dako Autostainer Link 48: Manufactured by DAKO). After washing with EnVision FLEX WASH BUFFER (manufactured by DAKO), Peroxidase Block 3% H2O2 (manufactured by DAKO) is add; incubation is carried out; and washing is carried out with EnVision FLEX WASH BUFFER. Protein Block serum free (manufactured by DAKO) is added; incubation s carried out; and liquid is removed by air blow. Mouse antibody 1A3 is diluted with REAL Antibody Diluent (manufactured by DAKO) and reacted. […]

Assay [3] concerns mouse antibody 1A3. As to the kind of experiment: Competitive inhibition with HER2-ADC (I), chemical structure recognized by mouse antibody 1A3 (Gyrolab). The assay is classed as binding. Conditions: compound 1 and 100 μg/mL dilution solutions; response at HER2-ADC (I) 250 ng/mL. From the text:
The chemical structure to be recognized by mouse antibody 1A3 was checked by competitive inhibition with HER2-ADC (I) using Gyrolab xP workstation (GYROS PROTEIN Technologies). As the compound for use in competitive inhibition, compound (1), compound (2), compound (7), compound (8), compound (9), compound (10), compound (11), Topotecan and Rubitecan were selected.
As the capture reagent, mouse antibody 1A3 labeled with biotin by a labeling kit (ChromaLink Biotin Protein LABELING Kit, Solulink) was used. The concentration thereof was controlled to be 700 nM with 0.1% PS20-containing PBS. The compounds for use in competitive inhibition, compound (1), compound (2), compound (7), compound (8), compound (9), compound (10), compound (11), Topotecan and Rubitecan were separately dissolved in DMSO. The solutions each was diluted with 10% or 20% DMSO in Rexxip HN (GYROS PROTEIN Technologies) to prepare 0, 1 and 100 μg/mL dilution solutions. To each of them, the 700 nM mouse antibody 1A3 solution was added in an equal amount. The mixture was stirred and allowed to react at room temperature in a dark place for one hour or more. The concentration of HER2-ADC (I) was controlled with Rexxip HN to be 0, 0.244, 0.977, 3.91, 15.6, 62.5, 250 and 1000 ng/mL. As the detection reagent, Mouse Anti-(Anti-HER2 Ab) idiotype Ab (13C1) (IBL) was labeled by DyLight650 (registered trademark) labeling kit and put in use. The concentration thereof was controlled with Rexxip F (GYROS PROTEIN Technologies) to be 10 nM. The above solution was set at Gyrolab xP workstation and measurement was carried out by use of Gyrolab Bioaffy 200 at 200-3W-002-A (PMT5). The regression analysis was carried out by use of Gyrolab Evaluator 3.4.0.24 in 4-parametric logistic model (weight: Response). The calibration curve of HER2-ADC (I) was prepared per concentration of the competitive inhibition compound. The inhibition rate (%) was calculated by comparing the response at an HER2-ADC (I) concentration of 250 ng/mL to that of the case where no compound was added (concentration 0 ng/mL).

The target of a further assay is T1, topoisomerase I (Homo sapiens, UniProt P11387).
T1 sequence (P11387 1-765): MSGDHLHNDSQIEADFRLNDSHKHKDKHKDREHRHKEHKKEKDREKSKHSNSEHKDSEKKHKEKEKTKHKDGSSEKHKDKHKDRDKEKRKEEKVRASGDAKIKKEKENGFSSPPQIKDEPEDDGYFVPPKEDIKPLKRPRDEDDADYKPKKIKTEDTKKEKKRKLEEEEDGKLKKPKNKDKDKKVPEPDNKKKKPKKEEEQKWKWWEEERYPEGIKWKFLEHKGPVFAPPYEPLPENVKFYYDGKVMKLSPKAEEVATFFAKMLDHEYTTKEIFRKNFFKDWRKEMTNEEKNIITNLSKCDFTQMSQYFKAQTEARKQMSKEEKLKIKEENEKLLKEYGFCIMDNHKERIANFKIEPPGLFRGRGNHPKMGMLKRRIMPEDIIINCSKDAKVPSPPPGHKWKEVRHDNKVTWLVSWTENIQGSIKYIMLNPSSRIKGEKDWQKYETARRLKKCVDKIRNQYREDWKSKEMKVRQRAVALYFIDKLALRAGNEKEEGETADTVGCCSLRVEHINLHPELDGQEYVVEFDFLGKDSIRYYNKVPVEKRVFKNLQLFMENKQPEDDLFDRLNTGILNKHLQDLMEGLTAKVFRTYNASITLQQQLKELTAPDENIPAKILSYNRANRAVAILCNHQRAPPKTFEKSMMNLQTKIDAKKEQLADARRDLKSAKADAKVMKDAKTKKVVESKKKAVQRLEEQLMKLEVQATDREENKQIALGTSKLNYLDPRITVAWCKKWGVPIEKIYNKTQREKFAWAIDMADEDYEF
The note with it: cited from earlier work.

The next assay has as its system GPR20-ADC (I). As to the kind of experiment: Immunostaining with rabbit chimeric antibody 1A3, GIST-T1/GPR20 subcutaneous tumor after GPR20-ADC (I). The assay is classed as binding, nude mouse.
Another assay has as its system TROP2-ADC (I). As to the kind of experiment: Immunostaining with rabbit chimeric antibody 1A3, FaDu subcutaneous tumor after TROP2-ADC (I). The assay is classed as binding, nude mouse. The protocol:
To an immunodeficient mouse (nude mouse), human head and neck cancer cell line FaDu was subcutaneously transplanted. After TROP2-ADC (I) was administered, the tumor tissue was taken to prepare paraffin-embedded specimens. Then, stainability of rabbit chimeric antibody 1A3 was examined. The tumor tissue was taken from a nude mouse to which an anti-TROP2 antibody (an antibody comprising a heavy chain consisting of amino acid sequence of amino acid residues 20 to 470 of SEQ ID NO: 25 and a light chain consisting of amino acid sequence of amino acid residues 21 to 234 of SEQ ID NO: 26, hereinafter referred to as “Anti-TROP2 Ab”) and used as a negative control. Deparaffinization and antigen activation were carried out using Autostainer Link pretreatment system (PT Link, manufactured by DAKO) and an antigen retrieval solution (Target Retrieval Solution Low pH, manufactured by DAKO) at 97° C. for 40 minutes. The following staining operation was carried out using an automatic staining device (Dako Autostainer Link 48: manufactured by DAKO) at room temperature. After washing once with EnVision FLEX WASH BUFFER (manufactured by DAKO), REAL Peroxidase-Blocking Solution (manufactured by DAKO) was added; incubation was carried out for 5 minutes; and washing was carried out once with EnVision FLEX WASH BUFFER. […]

Take `CCc1c2c(nc3ccc(O)cc13)-c1cc3c(c(=O)n1C2)COC(=O)[C@]3(O)CC` [SN-38, reference compound]: the “staining ability of mouse antibody 1A3 after mixing with the compound” value in the assay on mouse antibody 1A3 [1] is listed as “did not disappear”. In addition, in the assay with mouse antibody 1A3 [2], the “stainability of mouse antibody 1A3 after mixing with the compound” value is recorded as “does not disappear”.

In the case of `CC[C@@]1(O)C(=O)OCc2c1cc1n(c2=O)Cc2c-1nc1cc(F)c(C)c3c1c2[C@@H](NC(=O)CO)CC3` [compound (2)], the “competitive inhibition of recognition of mouse antibody 1A3 to HER2-ADC (I) (inhibition rate, FIG. 41)” value in the assay on mouse antibody 1A3 [3] was “strong competitive inhibition”. Moreover, the “topoisomerase I inhibitory activity” value at topoisomerase I is reported as “topoisomerase I inhibitory effect”. Moreover, the “staining ability of mouse antibody 1A3 after mixing with the compound” value in the assay on mouse antibody 1A3 [1] is reported as “disappeared”. In addition, the “stainability of mouse antibody 1A3 after mixing with the compound” value with mouse antibody 1A3 [2] is recorded as “disappears”.

B1: rabbit chimeric antibody 1A3: rabbit chimeric antibody derived from mouse antibody 1A3; heavy chain SEQ ID NO: 19, light chain SEQ ID NO: 20 (antibody)
heavy: MKHLWFFLLLVAAPRWVLSEVKLVESGGGLVQPGGSRKLSCAASGFTFSDYGMVWIRQAPGRGLEWVAYISSGSSAIYYADTVKGRFTISRDNPKNTLFLQMNSLRSEDSAMYFCARPPRYDVYSAWFAYWGQGTLVTVSAGQPKAPSVFPLAPCCGDTPSSTVTLGCLVKGYLPEPVTVTWNSGTLTNGVRTFPSVRQSSGLYSLSSVVSVTSSSQPVTCNVAHPATNTKVDKTVAPSTCSKPTCPPPELLGGPSVFIFPPKPKDTLMISRTPEVTCVVVDVSQDDPEVQFTWYINNEQVRTARPPLREQQFNSTIRVVSTLPITHQDWLRGKEFKCKVHNKALPAPIEKTISKARGQPLEPKVYTMGPPREELSSRSVSLTCMINGFYPSDISVEWEKNGKAEDNYKTTPAVLDSDGSYFLYNKLSVPTSEWQRGDVFTCSVMHEALHNHYTQKSISRSPGK
light: MVLQTQVFISLLLWISGAYGDIVMTQSHKFMSTSVGDRVSITCKASQDVGSAVVWYQQKPGHSPDLLIYWASTRHTGVPDRFTGSGSGTDFTLTIGNVQSEDLADYFCQQYSSYPVTFGGGTKLEIKRDPVAPSVLLFPPSKEELTTGTATIVCVANKFYPSDITVTWKVDGTTQQSGIENSKTPQSPEDNTYSLSSTLSLTSAQYNSHSVYTCEVVQGSASPIVQSFNRGDC
Regarding B1, the “stainability to subcutaneous tumor tissue” value in the assay on GPR20-ADC (I) (animal administered with GPR20-ADC (I)) was “satisfactory stainability”; in the assay with GPR20-ADC (I) (animal not administered with GPR20-ADC (I)), “did not show stainability”; in the assay with TROP2-ADC (I) (animal administered with TROP2-ADC (I), antibody 0.1 μg/mL), “satisfactory stainability”; with TROP2-ADC (I) (animal administered with anti-TROP2 Ab (negative control tissue)), “did not show stainability”.
